From ChEMBL document CHEMBL4350989, “Discovery of 2,4-diarylaminopyrimidine derivatives bearing dithiocarbamate moiety as novel FAK inhibitors with antitumor and anti-angiogenesis activities” (Eur J Med Chem, 2019) come the findings set out here.

pIC50: −log10 of the molar value.

One assay has as its system U-87 MG. Briefly: Antiproliferative activity against human U87MG cells overexpressing FAK assessed as reduction in cell viability after 72 hrs by MTS assay.
In another assay the test system is PC-3. Briefly: Antiproliferative activity against human PC3 cells overexpressing FAK assessed as reduction in cell viability after 72 hrs by MTS assay. The settings on record: PC-3, 72 h.
The next assay has as its system MCF7. Description: Antiproliferative activity against human MCF7 cells overexpressing FAK assessed as reduction in cell viability after 72 hrs by MTS assay. Conditions: MCF7, 72 h.
For the next assay, the system named is HCT-116. Briefly: Antiproliferative activity against human HCT116 cells overexpressing FAK assessed as reduction in cell viability after 72 hrs by MTS assay. The settings on record: HCT-116, 72 h.
The next assay relates to MCF-10A. Briefly: Cytotoxicity against human MCF10A cells assessed as reduction in cell viability after 72 hrs by MTS assay.

For the compound `CNC(=O)c1ccccc1Nc1nc(Nc2ccc(C(=O)N3CCN(C(=S)SCCN4CCOCC4)CC3)cc2)ncc1Cl`, the pIC50 was 6.33 in the assay on U-87 MG, 6.64 in the assay on PC-3, 6.48 in the assay on MCF7 and 5.45 in the assay with HCT-116.
`CNC(=O)c1ccccc1Nc1nc(Nc2ccc(C(=O)N3CCN(C(=S)SCCN(C)C)CC3)cc2)ncc1C`: the pIC50 was 6.55 in the assay on U-87 MG; 6.57 in the assay with PC-3; 7.10 in the assay on MCF7; 8.00 with HCT-116; 5.97 in the assay with MCF-10A.
Take `CNC(=O)c1ccccc1Nc1nc(Nc2ccc(C(=O)N3CCN(C(=S)SCCN4CCN(C)CC4)CC3)cc2)ncc1Cl`: the pIC50 in the assay on U-87 MG was 6.21; with PC-3, 6.59; with MCF7 it was 6.66; in the assay on HCT-116, 8.00.
For `CNC(=O)c1ccccc1Nc1nc(Nc2ccc(C(=O)N3CCN(C(=S)SCc4cccnc4)CC3)cc2)ncc1Cl`, in that order: 5.82, 6.35, 6.41 and 7.52.
On to `CNC(=O)c1ccccc1Nc1nc(Nc2ccc(C(=O)N3CCN(C(=S)SCCC4OCCO4)CC3)cc2)ncc1Cl`, for which the pIC50 in the assay with U-87 MG is 5.56; in the assay with PC-3, 6.16; with MCF7 it was 6.68; in the assay on HCT-116 it was 7.30.
Regarding `CNC(=O)c1ccccc1Nc1nc(Nc2ccc(C(=O)N3CCN(C(=S)SCc4ccncc4)CC3)cc2)ncc1Cl`, the negative logarithm of the IC50 (pIC50) is 5.77 in the assay with U-87 MG, 6.44 with PC-3, 6.11 with MCF7 and 7.22 with HCT-116.
Turning to `CNC(=O)c1ccccc1Nc1nc(Nc2ccc(N3CCOCC3)cc2OC)ncc1Cl`, the pIC50 is 5.78 to 5.80 in the assay with U-87 MG; 5.77 to 5.92 with PC-3; 6.25 to 6.35 with MCF7; 6.34 to 6.54 with HCT-116; 5.06 with MCF-10A.
For `CNC(=O)c1ccccc1Nc1nc(Nc2ccc(C(=O)N3CCN(C(=S)SCCN(C)C)CC3)cc2)ncc1Cl`, in that order: 6.44 to 6.70, 7.05, 7.05 to 7.10, 8.40 and 6.14.
Consider `CNC(=O)c1ccccc1Nc1nc(Nc2ccc(C(=O)N3CCN(C(=S)SCCO)CC3)cc2)ncc1Cl`, for which the pIC50 is 6.15 in the assay with U-87 MG, 6.62 in the assay with PC-3, 6.96 in the assay with MCF7 and 7.70 in the assay on HCT-116.
Taken in the same sequence, the figures for `CNC(=O)c1ccccc1Nc1nc(Nc2ccc(C(=O)N3CCN(C(=S)SCCS(C)(=O)=O)CC3)cc2)ncc1Cl` were 6.04, 6.28, 6.40 and 7.52.
Take `CNC(=O)c1ccccc1Nc1nc(Nc2ccc(C(=O)N3CCN(C(=S)SCCN4CCCCC4)CC3)cc2)ncc1Cl`: the pIC50 in the assay on U-87 MG is 6.55; in the assay on PC-3 it was 6.42; in the assay on MCF7 it was 6.57; in the assay with HCT-116, 8.00.
For `CNC(=O)c1ccccc1Nc1ccnc(Nc2ccc(C(=O)N3CCN(C(=S)SCCN(C)C)CC3)cc2)n1`, the pIC50 is 5.55 with U-87 MG; 5.52 in the assay on PC-3; 5.70 in the assay on MCF7; 6.36 in the assay on HCT-116; 5.21 in the assay on MCF-10A.
Take `CNC(=O)c1ccccc1Nc1nc(Nc2ccc(C(=O)N3CCN(C(=S)SCCC(=O)OC)CC3)cc2)ncc1Cl`: the pIC50 was 5.88 with U-87 MG, 5.70 with PC-3, 5.64 with MCF7 and 6.59 in the assay with HCT-116.
Regarding `CNC(=O)c1ccccc1Nc1nc(Nc2ccc(C(=O)N3CCN(C(=S)SCCN(C)C)CC3)cc2)ncc1OC`, the pIC50 in the assay on U-87 MG was 5.79; in the assay with PC-3, 6.04; with MCF7, 6.44; with HCT-116, 6.80; with MCF-10A, 5.61.
As for `CNC(=O)c1ccccc1Nc1nc(Nc2ccc(C(=O)N3CCN(C(=S)SCCN4CCCC4)CC3)cc2)ncc1Cl`, the pIC50 is 6.70 in the assay with U-87 MG, 6.66 in the assay with PC-3, 6.80 in the assay with MCF7 and 8.00 in the assay with HCT-116.
Taken in the same sequence, the figures for `CNC(=O)c1ccccc1Nc1nc(Nc2ccc(C(=O)N3CCN(C(=S)SCCc4ccccc4)CC3)cc2)ncc1Cl` were less than 4.70, less than 4.70, 4.93 and 5.42.
Regarding `CNC(=O)c1ccccc1Nc1nc(Nc2ccc(C(=O)N3CCN(C(=S)SCC4CCOCC4)CC3)cc2)ncc1Cl`, the pIC50 is less than 4.70 with U-87 MG, 6.51 in the assay on PC-3, 6.27 in the assay on MCF7 and 7.05 in the assay on HCT-116.
Take `CNC(=O)c1ccccc1Nc1nc(Nc2ccc(C(=O)N3CCN(C(=S)SCc4ccccn4)CC3)cc2)ncc1Cl`: the negative logarithm of the IC50 (pIC50) in the assay with U-87 MG was 5.60; in the assay with PC-3 it was 6.40; in the assay on MCF7 it was 6.41; with HCT-116 it was 7.22.
Consider `CNC(=O)c1ccccc1Nc1nc(Nc2ccc(C(=O)N3CCN(C(=S)SCCN(C)C)CC3)cc2)ncc1F`, for which the pIC50 in the assay on U-87 MG was 6.16; in the assay on PC-3, 6.44; in the assay on MCF7 it was 6.80; with HCT-116, 7.52; in the assay with MCF-10A, 5.76.
As for `C=CCSC(=S)N1CCN(C(=O)c2ccc(Nc3ncc(Cl)c(Nc4ccccc4C(=O)NC)n3)cc2)CC1`, the pIC50 with U-87 MG was less than 4.70; in the assay with PC-3 it was 5.99; in the assay on MCF7 it was 5.86; in the assay with HCT-116, 6.96.
As to `CNC(=O)c1ccccc1Nc1nc(Nc2ccc(C(=O)N3CCN(C(=S)SCc4ccccc4)CC3)cc2)ncc1Cl`, the pIC50 was 5.47 in the assay with U-87 MG, 4.77 with PC-3, less than 4.70 in the assay on MCF7 and 7.30 in the assay on HCT-116.
`CCOC(=O)C(=O)CSC(=S)N1CCN(C(=O)c2ccc(Nc3ncc(Cl)c(Nc4ccccc4C(=O)NC)n3)cc2)CC1`: the pIC50 was 5.94 with U-87 MG, 6.33 in the assay with PC-3, 6.28 in the assay with MCF7 and 7.22 with HCT-116.
As to `CCOC(=O)CSC(=S)N1CCN(C(=O)c2ccc(Nc3ncc(Cl)c(Nc4ccccc4C(=O)NC)n3)cc2)CC1`, the pIC50 in the assay on U-87 MG was 5.12; in the assay with PC-3 it was 5.45; in the assay with MCF7, 5.00; in the assay with HCT-116, 5.33.
For `CNC(=O)c1ccccc1Nc1nc(Nc2ccc(C(=O)N3CCN(C(=S)SCC(C)O)CC3)cc2)ncc1Cl` (stereo not given), in that order: 6.06, 6.70, 6.96 and 7.52.
On to `CNC(=O)c1ccccc1Nc1nc(Nc2ccc(C(=O)N3CCN(C(=S)SCCOC)CC3)cc2)ncc1Cl`, for which the pIC50 in the assay on U-87 MG is 6.21; in the assay on PC-3, 6.34; in the assay on MCF7 it was 6.52; in the assay on HCT-116, 7.40.
`CNC(=O)c1ccccc1Nc1nc(Nc2ccc(C(=O)N3CCN(C(=S)SCCC#N)CC3)cc2)ncc1Cl`: the pIC50 is 5.76 with U-87 MG, 6.77 in the assay on PC-3, 5.14 with MCF7 and 7.52 in the assay on HCT-116.
`CNC(=O)c1ccc(Nc2ncc(C(F)(F)F)c(NCc3nccnc3N(C)S(C)(=O)=O)n2)cc1` [DEFACTINIB]: the pIC50 with U-87 MG is 4.99; in the assay on PC-3, less than 4.70; in the assay on MCF7, 5.01 to 5.05; in the assay with HCT-116, 5.52 to 5.58; in the assay with MCF-10A it was 4.73.
